Data from ChEMBL document CHEMBL1201862, “PubChem BioAssay data set” (2004).
Active and inactive are the calls of the source.

Key:
[1] = viability of uninfected HEp-2 cells – cell-based, HTS, cytotoxicity control for RSV inhibitor project, dose response (AID 2410); type: functional; conditions: human respiratory syncytial virus
Cytochrome P450 2D6 = Cytochrome P450 2D6 (Homo sapiens, UniProt P10635);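 note: CYP2D6 member of a cytochrome P450 panel assay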
[2] = Luminescence Cell-Based Dose Confirmation HTS to Identify Activators of 5'UTR Stem-Loop Driven Alpha-Synuclein mRNA Translation in H4 Neuroglioblastoma Cells. [Related pubchem assays: 1829 (Project Summary), 1814 (Primary HTS)]; type: functional
[3] = Luminescence Cell-Based Dose Response HTS to Identify Activators of Luciferase Translation or Activity in H4 […] Cells. [Related pubchem assays: 1829 (Project Summary), 1814 (Primary HTS)]; type: functional
H4 = assay: Luminescence Cell-Based Dose Response HTS to Identify Activators of 5'UTR Stem-Loop Driven Prion Protein mRNA Translation in H4 Neuroglioblastoma Cells. [Related pubchem assays: 1829 (Project Summary), 1814 (Primary HTS)]; type: functional; conditions: Homo sapiens
Cytochrome P450 1A2 = molecular target: T1, Cytochrome P450 1A2 (Homo sapiens, UniProt P05177);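 note: PubChem cytochrome P450 panel assay, CYP1A2 panel member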
T1 sequence (P05177 whole entry): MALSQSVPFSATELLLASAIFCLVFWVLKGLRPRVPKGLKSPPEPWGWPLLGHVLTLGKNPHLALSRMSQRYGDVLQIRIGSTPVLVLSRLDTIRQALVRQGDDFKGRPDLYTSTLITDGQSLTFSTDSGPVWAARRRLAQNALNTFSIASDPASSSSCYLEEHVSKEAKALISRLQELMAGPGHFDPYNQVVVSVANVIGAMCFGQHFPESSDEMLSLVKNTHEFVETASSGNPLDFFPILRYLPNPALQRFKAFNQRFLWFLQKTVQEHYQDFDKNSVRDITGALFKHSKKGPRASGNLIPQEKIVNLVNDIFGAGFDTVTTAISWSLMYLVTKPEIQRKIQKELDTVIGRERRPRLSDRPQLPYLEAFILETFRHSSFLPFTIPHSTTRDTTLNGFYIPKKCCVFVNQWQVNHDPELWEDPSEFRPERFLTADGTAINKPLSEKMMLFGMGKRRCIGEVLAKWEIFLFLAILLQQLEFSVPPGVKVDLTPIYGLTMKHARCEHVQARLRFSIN

[4] = molecular target: T2, Corticotropin-releasing factor receptor 2/Corticotropin-releasing factor-binding protein (Homo sapiens, UniProt P24387+Q13324); assay: Dose Response confirmation of uHTS hits for small molecule antagonists of the CRF-binding protein and CRF-R2 receptor complex.; type: functional; conditions: read-out: IC50_Mean
T2 sequence (Q13324 whole entry): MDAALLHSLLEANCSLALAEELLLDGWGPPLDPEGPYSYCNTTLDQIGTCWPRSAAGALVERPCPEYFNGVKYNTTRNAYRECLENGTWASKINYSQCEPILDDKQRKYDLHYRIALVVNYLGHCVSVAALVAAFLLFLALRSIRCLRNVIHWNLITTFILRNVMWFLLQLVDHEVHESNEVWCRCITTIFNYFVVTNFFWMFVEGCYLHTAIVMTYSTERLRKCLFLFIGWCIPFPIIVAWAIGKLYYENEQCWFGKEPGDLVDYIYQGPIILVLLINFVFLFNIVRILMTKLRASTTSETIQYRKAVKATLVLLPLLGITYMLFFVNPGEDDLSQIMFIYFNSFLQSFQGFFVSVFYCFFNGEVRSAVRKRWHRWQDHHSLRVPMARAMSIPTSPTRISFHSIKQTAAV
T2 sequence (P24387 whole entry): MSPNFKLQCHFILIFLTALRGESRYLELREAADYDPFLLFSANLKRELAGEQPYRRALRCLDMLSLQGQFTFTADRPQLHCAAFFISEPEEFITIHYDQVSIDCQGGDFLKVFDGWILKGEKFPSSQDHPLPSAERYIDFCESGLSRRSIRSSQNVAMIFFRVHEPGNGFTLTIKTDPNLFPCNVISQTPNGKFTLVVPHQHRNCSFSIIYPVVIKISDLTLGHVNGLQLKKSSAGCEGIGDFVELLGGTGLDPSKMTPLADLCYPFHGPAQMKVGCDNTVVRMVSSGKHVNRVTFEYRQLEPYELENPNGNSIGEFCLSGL

[5] = molecular target: T2, Corticotropin-releasing factor receptor 2/Corticotropin-releasing factor-binding protein; assay: activators of CRF receptor 2 with binding protein – uHTS hits, confirmation (AID 602473); type: functional; conditions: read-out: EC50_Mean
Cytochrome P450 3A4 = Cytochrome P450 3A4 (Homo sapiens, UniProt P08684);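 note: CYP3A4 tested as one member of a cytochrome P450 panel screen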
Sequence of Cytochrome P450 3A4 (P08684 whole entry): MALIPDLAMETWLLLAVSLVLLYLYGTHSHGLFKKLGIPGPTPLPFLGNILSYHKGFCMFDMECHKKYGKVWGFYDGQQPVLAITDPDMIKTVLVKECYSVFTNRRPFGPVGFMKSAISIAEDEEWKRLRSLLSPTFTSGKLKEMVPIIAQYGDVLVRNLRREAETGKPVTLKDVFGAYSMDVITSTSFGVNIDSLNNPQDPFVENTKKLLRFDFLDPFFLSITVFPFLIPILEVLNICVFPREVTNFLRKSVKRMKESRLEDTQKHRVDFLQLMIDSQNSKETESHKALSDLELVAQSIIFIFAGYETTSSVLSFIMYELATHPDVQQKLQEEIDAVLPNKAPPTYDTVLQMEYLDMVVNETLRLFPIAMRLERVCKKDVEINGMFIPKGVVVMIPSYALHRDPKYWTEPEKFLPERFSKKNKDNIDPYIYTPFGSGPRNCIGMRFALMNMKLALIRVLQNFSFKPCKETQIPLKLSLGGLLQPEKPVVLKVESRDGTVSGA

Cytochrome P450 2C19 = Cytochrome P450 2C19 (Homo sapiens, UniProt P33261); assay: Cytochrome panel assay with activity outcomes. Panel member name: p450-cyp2c19 Compounds with AC50 equal or less than 10 uM are considered active; type: functional; conditions: read-out: AC50
Sequence of Cytochrome P450 2C19 (P33261 whole entry): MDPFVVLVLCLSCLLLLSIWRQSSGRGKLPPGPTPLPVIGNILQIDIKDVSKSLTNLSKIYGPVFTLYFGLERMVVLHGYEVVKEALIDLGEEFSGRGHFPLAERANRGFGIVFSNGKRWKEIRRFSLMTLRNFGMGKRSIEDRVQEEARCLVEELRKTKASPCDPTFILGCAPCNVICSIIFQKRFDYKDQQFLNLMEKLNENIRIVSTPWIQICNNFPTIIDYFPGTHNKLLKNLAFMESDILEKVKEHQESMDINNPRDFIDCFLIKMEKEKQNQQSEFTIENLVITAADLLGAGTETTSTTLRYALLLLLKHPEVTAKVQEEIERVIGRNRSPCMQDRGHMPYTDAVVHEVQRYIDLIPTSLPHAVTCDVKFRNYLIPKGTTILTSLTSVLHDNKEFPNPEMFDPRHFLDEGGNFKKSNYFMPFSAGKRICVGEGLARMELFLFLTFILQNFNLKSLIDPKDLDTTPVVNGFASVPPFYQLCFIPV

Cytochrome P450 2C9 = Cytochrome P450 2C9 (Homo sapiens, UniProt P11712)
Sequence of Cytochrome P450 2C9 (P11712 whole entry): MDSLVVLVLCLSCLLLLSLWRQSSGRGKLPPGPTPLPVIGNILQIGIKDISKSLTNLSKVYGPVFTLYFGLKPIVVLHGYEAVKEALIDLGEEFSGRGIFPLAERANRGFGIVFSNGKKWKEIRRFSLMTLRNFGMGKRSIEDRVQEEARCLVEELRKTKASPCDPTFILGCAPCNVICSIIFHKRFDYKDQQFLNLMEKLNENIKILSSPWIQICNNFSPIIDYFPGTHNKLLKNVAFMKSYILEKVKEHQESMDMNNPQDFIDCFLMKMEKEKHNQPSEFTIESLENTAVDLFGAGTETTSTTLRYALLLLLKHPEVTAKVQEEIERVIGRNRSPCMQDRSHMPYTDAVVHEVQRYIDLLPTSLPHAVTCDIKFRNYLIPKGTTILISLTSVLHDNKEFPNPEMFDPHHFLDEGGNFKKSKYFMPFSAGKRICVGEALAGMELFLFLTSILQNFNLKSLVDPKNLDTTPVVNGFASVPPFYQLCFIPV

[6] = Luminescence Cell-Based Dose Retest to Confirm Inhibitors of Cancer Stem Cells. [Related pubchem assays (depositor defined):AID2717, AID2721]; type: functional; conditions: Homo sapiens
[7] = molecular target: T3, Rac GTPase-activating protein 1 (Homo sapiens, UniProt Q9H0H5); assay: blockers of MgcRacGAP-driven Rac1 GTP hydrolysis – biochemical, ADP Hunter fluorescence, primary and confirmatory, confirmation (AID 624330); type: functional
T3 sequence (Q9H0H5 whole entry): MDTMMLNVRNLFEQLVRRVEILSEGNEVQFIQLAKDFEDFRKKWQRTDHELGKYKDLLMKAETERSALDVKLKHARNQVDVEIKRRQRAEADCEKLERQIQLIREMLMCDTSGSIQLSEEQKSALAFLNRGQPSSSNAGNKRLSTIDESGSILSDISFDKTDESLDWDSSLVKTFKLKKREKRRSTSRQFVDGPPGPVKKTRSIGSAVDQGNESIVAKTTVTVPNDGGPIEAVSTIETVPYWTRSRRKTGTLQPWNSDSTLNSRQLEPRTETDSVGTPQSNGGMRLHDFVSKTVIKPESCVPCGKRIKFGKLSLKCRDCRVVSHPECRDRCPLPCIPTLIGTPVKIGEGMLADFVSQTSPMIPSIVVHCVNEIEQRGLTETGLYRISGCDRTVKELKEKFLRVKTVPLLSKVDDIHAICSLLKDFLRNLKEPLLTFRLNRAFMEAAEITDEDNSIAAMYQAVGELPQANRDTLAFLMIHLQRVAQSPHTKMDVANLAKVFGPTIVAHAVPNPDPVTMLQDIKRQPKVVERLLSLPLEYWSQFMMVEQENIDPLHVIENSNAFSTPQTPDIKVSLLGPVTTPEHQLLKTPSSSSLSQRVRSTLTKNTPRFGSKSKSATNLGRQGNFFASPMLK

[8] = Trypanosoma cruzi growth suppression in host cells – NIH3T3 host cells, beta-gal luminescence, confirmation (AID 2044); type: functional, cell-based;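 note: intracellular parasites grown in NIH/3T3 mouse fibroblasts as host cells; luminescent beta-galactosidase reporter signal from transgenic T. cruzi replicating inside host cells; inhibitors lower the luminescence signal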
[9] = NIH3T3 cell viability loss – ATP luminescence, mouse fibroblasts, counter-screen, dose response (AID 2010); type: functional, cell-based;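 note: cells exposed to compound for about 90 hours before reading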

Sequence of Cytochrome P450 2D6 (P10635 whole entry): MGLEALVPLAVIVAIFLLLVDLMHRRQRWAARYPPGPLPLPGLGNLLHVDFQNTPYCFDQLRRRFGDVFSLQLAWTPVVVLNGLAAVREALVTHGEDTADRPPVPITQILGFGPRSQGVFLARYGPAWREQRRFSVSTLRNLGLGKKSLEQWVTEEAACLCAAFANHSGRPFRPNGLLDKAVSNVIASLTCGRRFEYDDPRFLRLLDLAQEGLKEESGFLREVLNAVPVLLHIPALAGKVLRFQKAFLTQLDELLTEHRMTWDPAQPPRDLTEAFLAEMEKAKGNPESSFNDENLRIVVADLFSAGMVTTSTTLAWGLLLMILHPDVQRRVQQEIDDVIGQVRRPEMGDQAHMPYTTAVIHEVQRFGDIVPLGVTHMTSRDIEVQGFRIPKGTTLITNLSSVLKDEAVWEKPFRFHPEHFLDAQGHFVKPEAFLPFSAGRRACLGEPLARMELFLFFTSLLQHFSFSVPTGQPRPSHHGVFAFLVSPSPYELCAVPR

Compound	EC50 [2]	EC50 [3]	EC50 (H4)	IC50 [4]	EC50 [5]	further results
O=Nc1c(O)n(Cc2ccc(Cl)cc2)c2ccccc12						CC50 [1]: 38.5 µM (active); AC50 (Cytochrome P450 2D6): 25.1 µM (inconclusive)
COc1ccc(-n2c(Cc3cccc([N+](=O)[O-])c3)nc3ccccc3c2=O)cc1						CC50 [1]: > 50 µM (active)
Cc1cccn2c(=O)c(/C=N/c3ccccc3)c(NCc3ccco3)nc12	> 120 µM (not active)	> 120 µM (not active)	> 120 µM (not active)			
C#CCN1C(C)=C(C(=O)OC)[C@@H](c2cccc([N+](=O)[O-])c2)C(C(=O)OCC)=C1C						AC50 (Cytochrome P450 2D6): 15.8 µM (inconclusive); AC50 (Cytochrome P450 1A2): 12.6 µM (inconclusive)
O=c1c2ccccc2nnn1-c1ccc(Br)cc1	0.157 µM (active)	0.1 µM (active)	19 µM (active)			
C[C@@]12C(=O)N(c3cccc(F)c3)C(=O)N1[C@H](c1ccc(Cl)cc1)[C@@H]1C(=O)N(C3CCCCC3)C(=O)[C@@H]12						CC50 [1]: 38.5 µM (active)
COc1ccc(C(CC(=O)Nc2ccc(F)cc2)c2ccccc2)cc1 (stereo not given)				24.3 µM (active)	> 53 µM (inactive)	
CCOC(=O)C1CCN(c2ncnc3c2nnn3Cc2ccccc2Cl)CC1				> 47.1 µM (inactive)	> 53 µM (inactive)	
Cc1[nH]c2ccccc2c1/C=N/NC(=O)c1cccc(S(=O)(=O)Nc2cccc(C(F)(F)F)c2)c1						CC50 [1]: 12.2 µM (active)
CCOC(=O)c1cc(C#N)c(Oc2ccccc2OC)nc1-c1ccccc1				> 47.1 µM (inactive)	> 53 µM (inactive)	AC50 (Cytochrome P450 3A4): 11.2 µM (inconclusive)
O=C(NCCC1=CCCCC1)C1CCCN(c2nc3ccccc3o2)C1 (stereo not given)						AC50 (Cytochrome P450 2D6): 14.1 µM (inconclusive); AC50 (Cytochrome P450 1A2): 15.8 µM (inconclusive)
CC(Sc1nnc(NCc2ccccc2)s1)C(=O)Nc1ccc2c(c1)C(=O)c1ccccc1C2=O (stereo not given)	14.1 µM (active)	9.18 µM (active)	49.2 µM (active)			
CCC(CC)C(=O)c1c[nH]c(C(=O)NCCc2ccccn2)c1						AC50 (Cytochrome P450 2C19): 20 µM (inconclusive); AC50 (Cytochrome P450 1A2): 14.1 µM (inconclusive); AC50 (Cytochrome P450 3A4): 20 µM (inconclusive); AC50 (Cytochrome P450 2C9): 39.8 µM (inconclusive)
Cc1cc2nnc(SCC(=O)NCc3ccco3)n2c2ccccc12	> 120 µM (not active)	5.13 µM (active)	> 120 µM (not active)			AC50 [6]: 2.9 µM (active)
COc1ccc(OC)c2c1s/c(=N\C(=O)C1COc3ccccc3O1)n2C (stereo not given)				> 47.1 µM (inactive)	> 53 µM (inactive)	
Oc1ccc(C23CCCC2C2(CCCC2)c2ccc(O)cc2O3)c(O)c1 (stereo not given)						CC50 [1]: 10.6 µM (active)
Cc1cc(C(=O)N2CCN(c3cccc(Cl)c3)CC2)c(C)o1	> 120 µM (not active)	20.8 µM (active)	> 120 µM (not active)			

Compound	EC50 [2]	EC50 [3]	EC50 (H4)	IC50 [4]	EC50 [5]	further results
CCOC(=O)c1sc2nc(C)n(CC(=O)NCC3CCCO3)c(=O)c2c1C (stereo not given)				> 47.1 µM (inactive)	> 53 µM (inactive)	
CCOC(=O)N1CCN(Cc2nc3c(c(=O)n(C)c(=O)n3C)n2CCC(C)C)CC1				> 47.1 µM (inactive)	> 53 µM (inactive)	
COc1cc(C=O)ccc1OCCOCCOc1ccc(Cl)cc1Cl				> 47.1 µM (inactive)	> 53 µM (inactive)	
CCCCCCC[n+]1ccc(-c2cc[n+](CCCCCCC)cc2)cc1						AC50 (Cytochrome P450 2C19): 10 µM (inconclusive); AC50 (Cytochrome P450 1A2): 31.6 µM (inconclusive); AC50 (Cytochrome P450 2C9): 39.8 µM (inconclusive)
CCOc1cc(/C=C2\SC(=S)N(Nc3ccccc3)C2=O)ccc1O	8.87 µM (active)	9.91 µM (active)	22.6 µM (active)			
CN(C)c1ccc(/C=C2/C(=N\O)C3CCN2CC3)cc1	26 µM (active)	6.23 µM (active)	28.8 µM (inconclusive)			IC50 [7]: 75.5 µM (active)
COc1ccc(C2=NN(C(C#N)c3ccc(OC)cc3)C(c3ccccc3)C2)cc1 (stereo not given)	5.24 µM (active)	8.15 µM (active)	> 120 µM (not active)			
Cc1nc2ccc(NC(=O)c3cccc(S(=O)(=O)N4CCOCC4)c3)cc2s1				> 47.1 µM (inactive)	> 53 µM (inactive)	
O=C(C1CCCN1S(=O)(=O)c1cccc2nsnc12)N1CCN(c2ccccc2)CC1 (stereo not given)	> 120 µM (not active)	> 120 µM (not active)	> 120 µM (not active)			
O=C1c2ccccc2NC(c2ccccc2Cl)N1N=C1CCCCCC1 (stereo not given)	18.9 µM (active)	11.9 µM (active)	0.493 µM (active)			
CC(C)(C)c1ccc(C(=O)NCCN2CCOCC2)cc1	12.5 µM (active)	11.8 µM (active)	18.3 µM (active)			
COc1ccc(S(=O)(=O)N2CCOC2CNC(=O)C(=O)NCCc2ccccc2)cc1C (stereo not given)				> 47.1 µM (inactive)	> 53 µM (inactive)	
CN1C(=O)C(O)(C2COC(C)(C)CC2=O)c2cc(Br)ccc21 (stereo not given)				> 47.1 µM (inactive)	> 53 µM (inactive)	
c1ccc(CN2CCC(Nc3nc(-c4cccnc4)nc4ccccc34)CC2)cc1	13 µM (active)	> 120 µM (not active)	104 µM (active)			EC50 [8]: 1.34 µM (active); EC50 [9]: 8.99 µM (active)
O=S(=O)(Cc1ccccc1)N1CCC(c2nc(O)c3nnn(Cc4cccc(Cl)c4)c3n2)CC1						CC50 [1]: 48.9 µM (active)
C/C(=N/NS(=O)(=O)c1ccc(Br)cc1)c1ccc(NC(=O)c2ccc(C)o2)cc1						CC50 [1]: 38 µM (active)
